From EP4656630A1, “NOVEL COMPOUND AS LYSYL-TRNA SYNTHETASE 1 INHIBITOR, AND USE THEREOF” (Zymedi Co., Ltd., priority 2023, dated 2024)

Assays:
Raw 264.7 cells = assay: LN (Laminin 421)-induced immune cell migration, Transwell; assay type: cell-based; details: Mus musculus, RAW264.7; 3 µM compound, LN (Laminin 421 1 µg/ml), 24 hours, % inhibition compared to control group; read-out: Migration inhibitor % (3uM)
Procedure: Cell migration was assessed based on the method described in the prior literature (Park, S. G. et al. Human lysyl-tRNA synthetase is secreted to trigger proinflammatory response. Proceedings of the National Academy of Sciences, 2005, 102.18: 6356-6361.). The specific experimental method is as follows. A Transwell (Corning#3421-5µm pore) was coated with gelatin (0.5mg/ml), and then Raw 264.7 cells (1 x 10^5 cells/well) were seeded in the upper chamber. Serum-free medium (Serum Free DMEM, 500 µl) containing LN (Laminin 421 1 µg/ml) was added to the lower chamber. Each compound was treated at a concentration of 3µM in the upper chamber. After 24 hours, the cells were fixed with 70% methanol for 30 minutes and stained with 50% hematoxylin for 30 minutes. Non-migrating cells on the upper side of the membrane were removed with a cotton swab, and the membrane was mounted on a slide. Migrating cells on the lower side of the membrane were observed under a high-power microscope, and the number of cells was measured from the obtained images and expressed as the inhibition rate (% inhibition) compared to the control group.

KARS1 and 37LR = target: T1, KARS1 and 37LR (Homo sapiens, UniProt Q15046); assay: Cell-free ELISA of KARS1 and 37LR (laminin receptor) binding; details: 10 µM compound, 1 hour, plate coated with KARS1 (1-207aa), LRF
T1 construct: KARS1 (1-207aa)
T1 sequence (Q15046 1-207): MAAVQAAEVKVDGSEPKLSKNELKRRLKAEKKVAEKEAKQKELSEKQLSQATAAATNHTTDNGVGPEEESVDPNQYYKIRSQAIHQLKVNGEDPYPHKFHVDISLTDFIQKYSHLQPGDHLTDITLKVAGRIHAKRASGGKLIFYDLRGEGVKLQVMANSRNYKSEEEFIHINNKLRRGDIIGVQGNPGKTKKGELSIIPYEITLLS
Procedure: Next, based on the mechanism of action, a cell-free ELISA analysis was conducted to select compounds with high inhibitory activity on the binding of KARS1 and LR (laminin receptor).

Raw264.7 cells = assay: KARS1-induced trans-migration assay; assay type: cell-based, mouse; details: Mus musculus, RAW264.7; 1 µM compound; read-out: KARS1-induced Raw264.7 cell migration (% inhibition, 1uM)
Procedure: C0001 inhibits the binding of KARS1 and 67LR, thereby blocking the migration of monocytes/macrophages and suppressing inflammation. Accordingly, a trans-migration assay using mouse macrophages (Raw264.7) was conducted to preliminarily screen drugs that inhibit the migration of monocytes/macrophages.
Based on this, when KARS1 protein was directly treated externally instead of LN, the trans-migration of Raw264.7 was induced, and the cell migration inhibitory effect of the KARS1 inhibitor C0001 was confirmed. It was verified that C0001, which specifically binds to KARS1, can inhibit cell migration by binding to extracellular KARS1, in addition to the mechanism of inhibiting cell membrane migration of KARS1 induced by laminin and its binding to 67LR, thereby enabling this analysis to be used as a direct method for evaluating in vitro activity against KARS1.
Next, preliminary candidate substances with high inhibitory activity at 1 µM were treated at concentrations of 0.1~4 µM for analysis.

[1] = Microsomal metabolic stability, rat; assay type: in vitro ADME
Procedure: (§1) Metabolic stability (MS) evaluation was conducted for the selected compounds by measuring in vitro stability in two species, rat and human, according to the microsomal stability measurement method. As a result, it was identified that MS varied depending on the transformation of parts A, B, and C.

[2] = Microsomal metabolic stability, human; assay type: in vitro ADME
Procedure: as §1

SMILES	inhibition at 3 µM (Raw 264.7 cells)	inhibition at 10 µM (KARS1 and 37LR)	inhibition at 1 µM (Raw264.7 cells)	Metabolic stability (% remaining at 30 min) Rat [1]	Metabolic stability (% remaining at 30 min) Human [2]
COc1ccc(CCN(Cc2ccc(N3CCC(C(=O)O)C3)cc2)c2nc3cccc(F)c3s2)cc1 (stereo not shown) [Compound 13, 1-(4-(((7-fluorobenzo[d]thiazol-2-yl)(4-methoxyphenethyl)amino)-methyl)phenyl)pyrrolidine-3-carboxylic acid]	90%	83.9%	93.4%	90%	74%
COc1ccc(CCN(Cc2ccc(C(=O)N3CCC[C@H]3C(=O)O)cc2)c2nc3cccc(F)c3s2)cc1 [Compound 14, (4-(((7-fluorobenzo[d]thiazol-2-yl)(4-methoxyphenethyl)amino)-methyl)benzoyl)-L-proline]	32%	100%	73.4%		
COc1ccc(CCN(Cc2ccc(C(=O)N3CCC(C(=O)O)C3)cc2)c2nc3cccc(F)c3s2)cc1 (stereo not shown) [Compound 15, 1-(4-(((7-fluorobenzo[d]thiazol-2-yl)(4-methoxyphenethyl)amino)-methyl)benzoyl)pyrrolidine-3-carboxylic acid]	0%	86.4%	54.4%		
COc1ccc(CCN(Cc2ccc(C(=O)NCC(=O)O)cc2)c2nc3cccc(F)c3s2)cc1 [Compound 16, (4-(((7-fluorobenzo[d]thiazol-2-yl)(4-methoxyphenethyl)amino)-methyl)benzoyl)glycine]	33%	68.2%	86.2%		
COc1ccc(CCN(Cc2cccc(N3CCC(C(=O)O)C3)c2)c2nc3cccc(F)c3s2)cc1 (stereo not shown) [Compound 17, 1-(3-(((7-fluorobenzo[d]thiazol-2-yl)(4-methoxyphenethyl)amino)-methyl)phenyl)pyrrolidine-3-carboxylic acid]	42%	79%	5.6%	71%	58%
COc1ccc(CCN(Cc2ccc(C(=O)N[C@@H](C(=O)O)C(C)C)cc2)c2nc3cccc(F)c3s2)cc1 [Compound 18, (4-(((7-fluorobenzo[d]thiazol-2-yl)(4-methoxyphenethyl)amino)-methyl)benzoyl)-D-valine]	9%	86.2%	31%		
COc1ccc(CCN(Cc2ccc(N3CCC[C@H]3C(=O)O)cc2)c2nc3cccc(F)c3s2)cc1 [Compound 19, (4-(((7-fluorobenzo[d]thiazol-2-yl)(4-methoxyphenethyl)amino)-methyl)phenyl)-L-proline]	15%	75.8%	69%		
COc1ccc(CCN(Cc2cccc(N3CCC[C@H]3C(=O)O)c2)c2nc3cccc(F)c3s2)cc1 [Compound 20, (3-(((7-fluorobenzo[d]thiazol-2-yl)(4-methoxyphenethyl)amino)-methyl)phenyl)-L-proline]	18%	3.4%	49.1%		
COc1ccc(CCN(Cc2nc3ccc(B(O)O)cc3n2C)c2nc3cccc(F)c3s2)cc1 [Compound 21, (2-(((7-fluorobenzo[d]thiazol-2-yl)(4-methoxyphenethyl)amino)-methyl)-1-methyl-1H-benzo[d]imidazol-6-yl)boronic acid]	36%	8.9%	26.1%		
COc1ccc(CCN(Cc2cccc(N3CC[C@H](C(=O)O)C3)c2)c2nc3cccc(F)c3s2)cc1 [Compound 22, (S)-1-(3-(((7-fluorobenzo[d]thiazol-2-yl)(4-methoxyphenethyl)amino)-methyl)phenyl)pyrrolidine-3-carboxylic acid]	19%	52%	43.4%		
COc1ccc(CCN(Cc2cccc(N3CC[C@@H](C(=O)O)C3)c2)c2nc3cccc(F)c3s2)cc1 [Compound 23, (R)-1-(3-(((7-fluorobenzo[d]thiazol-2-yl)(4-methoxyphenethyl)amino)-methyl)phenyl)pyrrolidine-3-carboxylic acid]	59%	71.6%	35.4%		
COc1ccc(CCN(Cc2ccc(N3CC[C@@H](C(=O)O)C3)cc2)c2nc3cccc(F)c3s2)cc1 [Compound 24, (R)-1-(4-(((7-fluorobenzo[d]thiazol-2-yl)(4-methoxyphenethyl)-amino)methyl)phenyl)pyrrolidine-3-carboxylic acid]	68%	65.9%	96.3%		
COc1ccc(CCN(Cc2ccc(-c3ccc(C(=O)O)o3)cc2)c2nc3cccc(F)c3s2)cc1 [Compound 26, 5-(4-(((7-fluorobenzo[d]thiazol-2-yl)(4-methoxyphenethyl)amino)-methyl)phenyl)furan-2-carboxylic acid]	48%	78.4%	80.6%		
COc1ccc(CCN(Cc2nc3ccc(C(=O)O)cc3n2C)c2nc3cccc(F)c3s2)cc1 [Compound 27, 2-(((7-fluorobenzo[d]thiazol-2-yl)(4-methoxyphenethyl)amino)methyl)-1-methyl-1H-benzo[d]imidazole-6-carboxylic acid]	9%	14%	9.1%		
COc1ccc(CCN(Cc2ccc3c(c2)CN(C(N)=O)C3)c2nc3cccc(F)c3s2)cc1 [Compound 30, 5-(((7-fluorobenzo[d]thiazol-2-yl)(4-methoxyphenethyl)amino)-methyl)isoindoline-2-carboxamide]	37.4%	64%	3.2%		
COc1ccc(CCN(Cc2ccc3c(c2)CN(CC(=O)O)C3)c2nc3cccc(F)c3s2)cc1 [Compound 32, 2-(5-(((7-fluorobenzo[d]thiazol-2-yl)(4-methoxyphenethyl)amino)-methyl)isoindolin-2-yl)acetic acid]	45%	-27.9%	18.1%		
COc1ccc(CCN(Cc2ccc(NC3(C(=O)O)CCC3)cc2)c2nc3cccc(F)c3s2)cc1 [Compound 33, 1-((4-(((7-fluorobenzo[d]thiazol-2-yl)(4-methoxyphenethyl)amino)-methyl)phenyl)amino)cyclobutane-1-carboxylic acid]	15.7%	41.9%	57.6%		
COc1ccc(CCN(Cc2ccc(N3CC(C(=O)O)C3)cc2)c2nc3cccc(F)c3s2)cc1 [Compound 39, 1-(4-(((7-fluorobenzo[d]thiazol-2-yl)(4-methoxyphenethyl)amino)-methyl)phenyl)azetidine-3-carboxylic acid]	51.9%	37.5%	97.4%		
O=C(O)[C@@H]1CCN(c2cccc(CN(CCc3ccc(OC(F)(F)F)cc3)c3nc4cccc(F)c4s3)c2)C1 [Compound 40, (R)-1-(3-(((7-fluorobenzo[d]thiazol-2-yl)(4-(trifluoromethoxy)-phenethyl)amino)methyl)phenyl)pyrrolidine-3-carboxylic acid]	37.7%	66.7%	76.1%		
